# In patent US20210255193A1, “LYSINE REACTIVE PROBES AND USES THEREOF” (The Scripps Research Institute, priority 2017, published 2021):
# Entries after “also recorded” stand apart in the source; their conditions may differ.
# Molecular target: T1, SIN3A Paired amphipathic helix protein Sin3a (Homo sapiens, UniProt Q96ST3)
# T1 construct: isoTOP-ABPP experiments performed in cell lysates (in vitro); endogenous in cells; host or cells: soluble proteome of human cancer cell lines (MDA-MB-231; Ramos and Jurkat also prepared)
# T1 sequence (Q96ST3 1-1273): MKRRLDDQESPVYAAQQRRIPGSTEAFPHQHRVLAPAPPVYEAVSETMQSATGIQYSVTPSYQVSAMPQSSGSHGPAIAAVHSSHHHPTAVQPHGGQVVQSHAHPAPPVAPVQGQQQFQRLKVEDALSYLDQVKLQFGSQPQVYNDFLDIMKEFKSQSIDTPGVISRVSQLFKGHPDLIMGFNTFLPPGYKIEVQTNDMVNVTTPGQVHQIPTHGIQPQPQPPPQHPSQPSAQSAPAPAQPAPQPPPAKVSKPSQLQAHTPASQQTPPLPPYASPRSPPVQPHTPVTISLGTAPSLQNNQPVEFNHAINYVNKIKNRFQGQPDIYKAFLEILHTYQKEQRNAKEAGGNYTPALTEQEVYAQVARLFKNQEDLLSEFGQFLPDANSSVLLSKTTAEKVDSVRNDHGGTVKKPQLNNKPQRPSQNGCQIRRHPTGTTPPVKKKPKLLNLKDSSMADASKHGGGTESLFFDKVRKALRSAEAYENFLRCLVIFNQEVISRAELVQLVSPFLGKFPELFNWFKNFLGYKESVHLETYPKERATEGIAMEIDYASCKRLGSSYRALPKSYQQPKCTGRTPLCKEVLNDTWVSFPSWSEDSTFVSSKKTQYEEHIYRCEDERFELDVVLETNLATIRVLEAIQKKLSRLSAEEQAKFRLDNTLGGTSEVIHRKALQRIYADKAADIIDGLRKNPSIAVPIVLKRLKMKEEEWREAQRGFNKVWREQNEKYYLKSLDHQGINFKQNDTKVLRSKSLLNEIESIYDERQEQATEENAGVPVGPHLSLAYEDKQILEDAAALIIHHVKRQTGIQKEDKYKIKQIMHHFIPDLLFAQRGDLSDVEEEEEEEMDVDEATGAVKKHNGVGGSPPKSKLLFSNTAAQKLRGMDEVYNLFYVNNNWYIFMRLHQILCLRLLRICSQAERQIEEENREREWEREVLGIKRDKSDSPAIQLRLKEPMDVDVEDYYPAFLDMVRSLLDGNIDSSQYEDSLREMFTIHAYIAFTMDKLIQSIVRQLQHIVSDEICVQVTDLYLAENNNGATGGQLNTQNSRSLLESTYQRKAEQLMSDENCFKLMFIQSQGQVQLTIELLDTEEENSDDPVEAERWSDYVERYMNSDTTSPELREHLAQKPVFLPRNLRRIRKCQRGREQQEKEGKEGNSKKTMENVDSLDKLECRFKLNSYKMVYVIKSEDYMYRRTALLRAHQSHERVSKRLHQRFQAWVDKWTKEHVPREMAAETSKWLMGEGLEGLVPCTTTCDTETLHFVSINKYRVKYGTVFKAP
# Assay: competitive isoTOP-ABPP
# Assay type: binding
# Conditions: 50 uM, 231 sol, in vitro
# Experimental: In vitro covalent fragment treatment for isoTOP-ABPP. All compounds were made up as solutions in DMSO (100×) and were used at a final concentration of 50 μM for activated esters and 100 μM for guanidinylating agents. For each profiling sample, 0.5 ml of lysate was treated with 5 μl of the 100× compound stock solution or 5 μl of DMSO. Samples were treated with activated esters for
# STP-alkyne labeling and click chemistry. For concentration-dependent reactivity measurements by isoTOP-ABPP, 0.5 ml proteome aliquots were treated at ambient temperature with 1 mM STP-alkyne 1 (5 μl of 100 mM stock in DMSO) and 0.1 mM STP alkyne 1 (5 μl of 10 mM stock in DMSO), respectively. For competitive isoTOP-ABPP, after in vitro fragment treatment (detailed above), the samples were labeled for 1 h at ambient temperature with 0.1 mM STP-alkyne 1 (5 μl of 10 mM stock in DMSO). Samples were conjugated by copper-mediated azide-alkyne cycloaddition (CuAAC) to either the light (1 mM STP-alkyne or fragment treated) or heavy (0.1 mM STP-alkyne or DMSO treated) TEV tags (10 μl of 5 mM stocks in DMSO, final concentration=100 μM) using tris(2-carboxyethyl)phosphine hydrochloride
# R value calculation and processing. The ratios of light and heavy MS1 peaks for each unique peptide were quantified with a CIMAGE software using default parameters (3 MS1 acquisitions per peak and signal to noise threshold set to 2.5). For reactivity measurements by isoTOP-ABPP, the R value was calculated from the ratio of MS1 peak areas, comparing the 1 mM STP alkyne sample (light TEV tag) with the 0.1 mM STP alkyne sample (heavy TEV tag). For competitive isoTOP-ABPP, the R value was calculated from the ratio of MS1 peak areas, comparing the DMSO treated sample (heavy TEV tag) with the compound treated sample (light TEV tag). […] Ratios for unique peptide entries are calculated for each experiment; overlapping peptides with the same modified lysine (for example, different charge states, MudPIT chromatographic steps or tryptic termini) are grouped together and the median ratio is reported as the final ratio (R). The peptide ratios reported by CIMAGE were further filtered to ensure the removal or correction of low-quality ratios in each individual data set. The quality filters applied were the following: removal of half tryptic peptides; for ratios with high standard deviations from the median (90% of the median or above) the lowest ratio was taken instead of the median; removal of peptides with R=20 and only a single MS2 event triggered during the elution of the parent ion; manual annotation of all the peptides with ratios of 20, removing any peptides with low quality elution profiles that remained after the previous curation steps (only done for competitive isoTOP-ABPP).
# Cross-data processing for fragment screening. For compound treated samples, biological replicates of the same condition were averaged, if the standard deviation was below 60% of the mean; otherwise, for lysines with at least one R value <4 for a particular compound, the lowest value of the ratio set was taken. For lysines, where all R values for a particular compound were ≥4, the average was reported. For peptides containing several possible modified lysines, the lysine with the highest number of quantification events was used for analysis and the remaining, redundant peptides were reported as alternative modification sites. Peptides included in the aggregate dataset (those used for further bioinformatics and statistical analyses) were required to have been quantified in 2 experiments for competitive isoTOP-ABPP. Lysines were categorized as liganded, if they had at least one ratio R≥4 (hit fragments). For liganded lysines with R=20 for all liganding events, lysines were required to have been quantified with R=20 in two separate experiments and were further required to have been quantified with R<20 in one additional experiment.
row,Compound,isoTOP-ABPP reactivity ratio at lysine Q96ST3_K155
1,"O=C(Oc1c(F)c(F)c(F)c(F)c1F)C1CCN(C(=O)OCc2ccccc2)CC1 [fragment 24, 1-Benzyl 4-(pentafluorophenyl) piperidine-1,4-dicarboxylate]",1.1
2,"O=C(Oc1c(F)c(F)c(F)c(F)c1F)c1ccc2ccccc2n1 [fragment 25, Pentafluorophenyl quinoline-2-carboxylate]",11.1
3,"O=C(CCc1coc2cc(F)ccc2c1=O)Oc1c(F)c(F)c(F)c(F)c1F [fragment 26, Pentafluorophenyl 3-(7-fluoro-4-oxo-4H-chromen-3-yl)propanoate]",1.7
4,"O=C(CN1C(=O)c2ccccc2C1=O)Oc1c(F)c(F)c(F)c(F)c1F [fragment 27, Pentafluorophenyl 2-(1,3-dioxoisoindolin-2-yl)acetate]",11.7
5,"CCn1cc(C(=O)Oc2c(F)c(F)c(F)c(F)c2F)c(=O)c2ccc(C)nc21 [fragment 28, Pentafluorophenyl 1-ethyl-7-methyl-4-oxo-1,4-dihydro-1,8-naphthyridine-3-carboxylate]",4.9
6,"O=C(CCc1cn(-c2ccccc2)nc1-c1ccccc1)Oc1ccc([N+](=O)[O-])cc1[N+](=O)[O-] [fragment 29, 2,4-Dinitrophenyl 3-(1,3-diphenyl-1H-pyrazol-4-yl)propanoate]",1.5
7,"O=C(Oc1ccc([N+](=O)[O-])cc1[N+](=O)[O-])C(c1ccccc1)c1ccccc1 [fragment 30, 2,4-Dinitrophenyl 2,2-diphenylacetate]",20.0
8,"O=C(Oc1ccc([N+](=O)[O-])cc1[N+](=O)[O-])c1cc(C(F)(F)F)cc(C(F)(F)F)c1 [fragment 31, 2,4-Dinitrophenyl 3,5-bis(trifluoromethyl)benzoate]",18.6
9,"Cn1cc(CC(=O)Oc2ccc([N+](=O)[O-])cc2[N+](=O)[O-])c2ccccc21 [fragment 32, 2,4-Dinitrophenyl 2-(1-methyl-1H-indol-3-yl)acetate]",17.5
10,"COc1cc(CCC(=O)Oc2ccc([N+](=O)[O-])cc2[N+](=O)[O-])cc(OC)c1OC [fragment 33, 2,4-Dinitrophenyl 3-(3,4,5-trimethoxyphenyl)propanoate]",2.0

# Same assay, conditions: 50 uM, in vitro, sol, 231
row,Compound,isoTOP-ABPP ratio (R) at liganded lysine Q96ST3_K155
1,"O=C(Oc1ccc([N+](=O)[O-])cc1[N+](=O)[O-])C1CCN(C(=O)OCc2ccccc2)CC1 [fragment 34, 1-Benzyl 4-(2,4-dinitrophenyl) piperidine-1,4-dicarboxylate]",0.8
2,"O=C(Oc1ccc([N+](=O)[O-])cc1[N+](=O)[O-])c1ccc2ccccc2n1 [fragment 35, 2,4-Dinitrophenyl quinoline-2-carboxylate]",1.6
3,"O=C(CCc1coc2cc(F)ccc2c1=O)Oc1ccc([N+](=O)[O-])cc1[N+](=O)[O-] [fragment 36, 2,4-Dinitrophenyl 3-(7-fluoro-4-oxo-4H-chromen-3-yl)propanoate]",1.4
4,"O=C(Oc1ccc([N+](=O)[O-])cc1[N+](=O)[O-])c1ccc(-c2ccccc2)cc1 [fragment 37, 2,4-Dinitrophenyl [1,1′-biphenyl]-4-carboxylate]",1.1
5,"O=C(CC12CC3CC(CC(C3)C1)C2)Oc1ccc([N+](=O)[O-])cc1[N+](=O)[O-] [fragment 38, 2,4-Dinitrophenyl 2-(adamantan-1-yl)acetate]",1.2
6,"O=C(Oc1ccc([N+](=O)[O-])cc1[N+](=O)[O-])c1ccc(Oc2ccccc2)cc1 [fragment 39, 2,4-Dinitrophenyl 4-phenoxybenzoate]",1.0
7,"O=C(Oc1ccc([N+](=O)[O-])cc1[N+](=O)[O-])c1ccccc1Nc1cccc(C(F)(F)F)c1 [fragment 40, 2,4-Dinitrophenyl 2-((3-(trifluoromethyl)phenyl)amino)benzoate]",1.1

# Same assay, conditions: Q96ST3_K155; 50 uM, 231 sol, in vitro
row,Compound,R value (DMSO/fragment) for probe 1 labeling
1,"O=C(CCc1cn(-c2ccccc2)nc1-c1ccccc1)Oc1c(F)c(F)c(F)c(F)c1F [fragment 19, Pentafluorophenyl 3-(1,3-diphenyl-1H-pyrazol-4-yl)propanoate]",1.6
2,"O=C(Oc1c(F)c(F)c(F)c(F)c1F)C(c1ccccc1)c1ccccc1 [fragment 20, Pentafluorophenyl 2,2-diphenylacetate]",1.2
3,"O=C(Oc1c(F)c(F)c(F)c(F)c1F)c1cc(C(F)(F)F)cc(C(F)(F)F)c1 [fragment 21, Pentafluorophenyl 3,5-bis(trifluoromethyl)benzoate]",20.0
4,"Cn1cc(CC(=O)Oc2c(F)c(F)c(F)c(F)c2F)c2ccccc21 [fragment 22, Pentafluorophenyl 2-(1-methyl-1H-indol-3-yl)acetate]",3.9
5,"COc1cc(CCC(=O)Oc2c(F)c(F)c(F)c(F)c2F)cc(OC)c1OC [fragment 23, Pentafluorophenyl 3-(3,4,5-trimethoxyphenyl)propanoate]",4.1

# Same assay, conditions: SIN3A K155; 21 50 μM
row,Compound,"engagement of K155, competition of probe 1 labeling"
1,"O=C(Oc1c(F)c(F)c(F)c(F)c1F)c1cc(C(F)(F)F)cc(C(F)(F)F)c1 [fragment 21, Pentafluorophenyl 3,5-bis(trifluoromethyl)benzoate]",engages K155 in SIN3A; also recorded: fully competes probe 1 labeling of K155
